Like-named read-outs stand apart in the source and are kept apart here.
Test system: hypoxia-inducible endogenous VEGF expression
Assay: Hypoxia-inducible endogenous VEGF expression ELISA in HeLa cells, dose-response EC50 (Table 3)
Format: cell-based, human
Procedure, shortened: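 HeLa cells kept 24-48 h under hypoxia (1% O2, 5% CO2, nitrogen balance) with or without compound, e.g. seven concentrations; secreted VEGF in conditioned medium quantified by ELISA against a standard curve. Parallel Cell Titer Glo viability under identical conditions excludes cytotoxicity.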

[1] = Homo sapiens, HeLa cells, hypoxic conditions (1% O2), 24-48 hours, VEGF in conditioned media, read-out: ELISA EC50
[2] = Homo sapiens, HeLa, read-out: ELISA EC50 μM

Structure (SMILES) | EC50 [1] [µM] | EC50 [2] [µM] | other results
O=C(Oc1ccc(F)cc1)N1CCc2c([nH]c3ccc(Cl)cc23)C1c1ccc(OCC2OCCO2)cc1 (stereo not drawn) [Compound 1051] | < 0.008 | – | –
O=C(Oc1ccccc1Cl)N1CCc2c([nH]c3ccc(Cl)cc23)C1c1ccc(OCC2OCCO2)cc1 (stereo not drawn) [Compound 1052] | 0.008 to 0.04 | – | –
O=C(Oc1ccc(Cl)cc1)N1CCc2c([nH]c3ccc(Cl)cc23)C1c1ccc(OCC2OCCO2)cc1 (stereo not drawn) [Compound 1053] | < 0.008 | – | –
O=C(Oc1ccc(Br)cc1)N1CCc2c([nH]c3ccc(Cl)cc23)C1c1ccc(OCC2OCCO2)cc1 (stereo not drawn) [Compound 1054] | < 0.008 | – | –
COc1ccc(OC(=O)N2CCc3c([nH]c4ccc(Cl)cc34)C2c2ccc(OCC3OCCO3)cc2)cc1 (stereo not drawn) [Compound 1055] | 0.008 to 0.04 | – | –
COc1ccc(OC(=O)N2CCc3c([nH]c4ccc(Cl)cc34)C2c2ccc(OCCCO)cc2)cc1 (stereo not drawn) [Compound 1058] | < 0.008 | – | –
O=C(Oc1ccccc1)N1CCc2c([nH]c3ccc(Cl)cc23)C1c1ccc(OCCCO)cc1 (stereo not drawn) [Compound 1062] | < 0.008 | – | –
O=C(COc1ccc(C2c3[nH]c4ccc(Cl)cc4c3CCN2C(=O)Oc2ccc(F)cc2)cc1)N1CCN(CCO)CC1 (stereo not drawn) [Compound 1064] | – | 0.008 to 0.04 | –
O=C(Oc1ccc(F)cc1)N1CCc2c([nH]c3ccc(Cl)cc23)C1c1ccc(OCC(O)Cn2ccnn2)cc1 (stereo not drawn) [Compound 1066] | – | – | EC50 (HeLa cells, hypoxic conditions (1% O2), 24-48 hours, VEGF in conditioned media, read-out: ELISA EC50): < 0.008 µM
O=C(Oc1ccc(F)cc1)N1CCc2c([nH]c3ccc(Cl)cc23)C1c1ccc(OCC(O)Cn2nccn2)cc1 (stereo not drawn) [Compound 1067] | 0.008 to 0.04 | – | –
O=C(Oc1ccc(Cl)cc1)N1CCc2c([nH]c3ccc(Cl)cc23)[C@@H]1c1ccc(OCCCn2ccnn2)cc1 [Compound 1068] | < 0.008 | – | –
O=C(Oc1ccc(Cl)cc1)N1CCc2c([nH]c3ccc(Cl)cc23)[C@H]1c1ccc(OCCCn2ccnn2)cc1 [Compound 1069] | < 0.008 | – | –
O=C(Oc1ccc(Cl)cc1)N1CCc2c([nH]c3ccc(Cl)cc23)[C@@H]1c1ccc(OC[C@H](O)CN2CCOCC2)cc1 [Compound 1070] | – | < 0.008 | –
O=C(Oc1ccc(Cl)cc1)N1CCc2c([nH]c3ccc(Cl)cc23)[C@@H]1c1ccc(OC[C@@H](O)CN2CCOCC2)cc1 [Compound 1071] | – | < 0.008 | –
O=C(Oc1ccccc1)N1CCc2c([nH]c3ccc(Cl)cc23)C1c1ccc(OCCCN2CCOCC2)cc1 (stereo not drawn) [Compound 1075] | – | 0.008 to 0.04 | –
CN1CCN(CCCOc2ccc(C3c4[nH]c5ccc(Cl)cc5c4CCN3C(=O)Oc3ccccc3)cc2)CC1 (stereo not drawn) [Compound 1076] | – | 0.04 to 0.2 | –
O=C(Oc1ccccc1)N1CCc2c([nH]c3ccc(Cl)cc23)C1c1ccc(OCCCn2ccnn2)cc1 (stereo not drawn) [Compound 1077] | 0.008 to 0.04 | – | –
O=C(Oc1ccccc1)N1CCc2c([nH]c3ccc(Cl)cc23)C1c1ccc(OCCCn2nccn2)cc1 (stereo not drawn) [Compound 1078] | 0.008 to 0.04 | – | –
COc1cc(C2c3[nH]c4ccc(Cl)cc4c3CCN2C(=O)Oc2ccc(Cl)cc2)ccc1OCCn1cncn1 (stereo not drawn) [Compound 1086] | 0.008 to 0.04 | – | –
COc1cc(C2c3[nH]c4ccc(Cl)cc4c3CCN2C(=O)Oc2ccc(Cl)cc2)ccc1OCCCn1cncn1 (stereo not drawn) [Compound 1087] | 0.008 to 0.04 | – | –
COc1cc(C2c3[nH]c4ccc(Cl)cc4c3CCN2C(=O)Oc2ccc(Cl)cc2)ccc1OCCCCn1cncn1 (stereo not drawn) [Compound 1088] | 0.008 to 0.04 | – | –
COc1ccc(C2c3[nH]c4ccc(Cl)cc4c3CCN2C(=O)Oc2ccc(Cl)cc2)cc1OCCn1cncn1 (stereo not drawn) [Compound 1089] | 0.2 to 1 | – | –

Structure (SMILES) | EC50 [1] [µM] | EC50 [2] [µM] | other results
COc1ccc(C2c3[nH]c4ccc(Cl)cc4c3CCN2C(=O)Oc2ccc(Cl)cc2)cc1OCCCn1cncn1 (stereo not drawn) [Compound 1090] | 0.2 to 1 | – | –
COc1ccc(C2c3[nH]c4ccc(Cl)cc4c3CCN2C(=O)Oc2ccc(Cl)cc2)cc1OCCCCn1cncn1 (stereo not drawn) [Compound 1091] | 0.2 to 1 | – | –
COc1cc(C2c3[nH]c4ccc(Cl)cc4c3CCN2C(=O)Oc2ccc(Cl)cc2)ccc1OCCN1CCOCC1 (stereo not drawn) [Compound 1092] | – | 0.008 to 0.04 | –
COc1cc(C2c3[nH]c4ccc(Cl)cc4c3CCN2C(=O)Oc2ccc(Cl)cc2)ccc1OCCCN1CCOCC1 (stereo not drawn) [Compound 1093] | – | 0.008 to 0.04 | –
COc1cc(C2c3[nH]c4ccc(Cl)cc4c3CCN2C(=O)Oc2ccc(Cl)cc2)ccc1OCCCCN1CCOCC1 (stereo not drawn) [Compound 1094] | – | 0.008 to 0.04 | –
COc1ccc(C2c3[nH]c4ccc(Cl)cc4c3CCN2C(=O)Oc2ccc(Cl)cc2)cc1OCCN1CCOCC1 (stereo not drawn) [Compound 1095] | – | 0.2 to 1 | –
COc1ccc(C2c3[nH]c4ccc(Cl)cc4c3CCN2C(=O)Oc2ccc(Cl)cc2)cc1OCCCN1CCOCC1 (stereo not drawn) [Compound 1096] | – | 0.2 to 1 | –
COc1ccc(C2c3[nH]c4ccc(Cl)cc4c3CCN2C(=O)Oc2ccc(Cl)cc2)cc1OCCCCN1CCOCC1 (stereo not drawn) [Compound 1097] | – | 0.04 to 0.2 | –
O=C(Oc1ccc(Cl)cc1)N1CCc2c([nH]c3ccc(Cl)cc23)C1c1ccc(OCCCN2CCC(CO)C2)cc1 (stereo not drawn) [Compound 1098] | – | 0.008 to 0.04 | –
CN1CCC(COc2ccc(C3c4[nH]c5ccc(Cl)cc5c4CCN3C(=O)Oc3ccc(Cl)cc3)cc2)CC1 (stereo not drawn) [Compound 1099] | – | 0.008 to 0.04 | –
COc1ccc(OC(=O)N2CCc3c([nH]c4ccc(Cl)cc34)C2c2ccc(OCCCN3CCN(C)CC3)cc2)cc1 (stereo not drawn) [Compound 1108] | – | 0.008 to 0.04 | –
O=C(Oc1ccc(F)cc1)N1CCc2c([nH]c3ccc(Cl)cc23)C1c1ccc(OCCCO)cc1 (stereo not drawn) [Compound 1110] | < 0.008 | – | –
O=C(Oc1ccc(Cl)cc1)N1CCc2c([nH]c3ccc(Cl)cc23)C1c1ccc(OCCCO)cc1 (stereo not drawn) [Compound 1111] | < 0.008 | – | –
CN1CCN(CCCOc2cccc(C3c4[nH]c5ccc(Cl)cc5c4CCN3C(=O)Oc3ccc(F)cc3)c2)CC1 (stereo not drawn) [Compound 1113] | – | 0.2 to 1 | –
O=C(Oc1ccc(F)cc1)N1CCc2c([nH]c3ccc(Cl)cc23)C1c1cccc(OCCCN2CCOCC2)c1 (stereo not drawn) [Compound 1115] | – | 0.008 to 0.04 | –
O=C(Oc1ccc(F)cc1)N1CCc2c([nH]c3ccc(Cl)cc23)C1c1cccc(OCCCN2CCSCC2)c1 (stereo not drawn) [Compound 1117] | – | 0.008 to 0.04 | –
COCCN(CCCOc1cccc(C2c3[nH]c4ccc(Cl)cc4c3CCN2C(=O)Oc2ccc(F)cc2)c1)CCOC (stereo not drawn) [Compound 1119] | – | 0.04 to 0.2 | –
COCCN(C)CCCOc1cccc(C2c3[nH]c4ccc(Cl)cc4c3CCN2C(=O)Oc2ccc(F)cc2)c1 (stereo not drawn) [Compound 1121] | – | > 1 | –
O=C(Oc1ccc(F)cc1)N1CCc2c([nH]c3ccc(Cl)cc23)C1c1cccc(OCCCn2ccnc2)c1 (stereo not drawn) [Compound 1123] | 0.04 to 0.2 | – | –
O=C(Oc1ccc(F)cc1)N1CCc2c([nH]c3ccc(Cl)cc23)C1c1cccc(OCCCn2ccnn2)c1 (stereo not drawn) [Compound 1125] | 0.2 to 1 | – | –
O=C(Oc1ccc(Cl)cc1)N1CCc2c([nH]c3ccc(Cl)cc23)[C@H]1c1ccc(OCCCCl)cc1 [Compound 1126] | 0.2 to 1 | – | –
O=C(Oc1ccc(Cl)cc1)N1CCc2c([nH]c3ccc(Cl)cc23)[C@H]1c1ccc(OCCCn2nccn2)cc1 [Compound 1127] | 0.04 to 0.2 | – | –

Structure (SMILES) | EC50 [1] [µM] | EC50 [2] [µM] | other results
O=C(Oc1ccc(Cl)cc1)N1CCc2c([nH]c3ccc(Cl)cc23)[C@@H]1c1ccc(OCCCCl)cc1 [Compound 1128] | < 0.008 | – | –
O=C(Oc1ccc(Cl)cc1)N1CCc2c([nH]c3ccc(Cl)cc23)[C@@H]1c1ccc(OCCCn2nccn2)cc1 [Compound 1129] | < 0.008 | – | –
COc1cc(C2c3[nH]c4ccc(Cl)cc4c3CCN2C(=O)Oc2ccccc2)ccc1OCCCN1CCOCC1 (stereo not drawn) [Compound 1130] | – | 0.008 to 0.04 | –
COc1ccc(OC(=O)N2CCc3c([nH]c4ccc(Cl)cc34)C2c2ccc(OCCCN3CCOCC3)c(OC)c2)cc1 (stereo not drawn) [Compound 1131] | – | 0.008 to 0.04 | –
COc1cc(C2c3[nH]c4ccc(Cl)cc4c3CCN2C(=O)Oc2ccc(C)cc2)ccc1OCCCN1CCOCC1 (stereo not drawn) [Compound 1132] | – | 0.008 to 0.04 | –
COc1ccc(OC(=O)N2CCc3c([nH]c4ccc(Cl)cc34)C2c2ccc(OCCCn3nccn3)cc2)cc1 (stereo not drawn) [Compound 1134] | < 0.008 | – | –
COc1cc(C2c3[nH]c4ccc(Cl)cc4c3CCN2C(=O)Oc2ccccc2)ccc1OCCCn1ccnn1 (stereo not drawn) [Compound 1144] | 0.04 to 0.2 | – | –
COc1cc(C2c3[nH]c4ccc(Cl)cc4c3CCN2C(=O)Oc2ccccc2)ccc1OCCCn1nccn1 (stereo not drawn) [Compound 1145] | 0.008 to 0.04 | – | –
COc1cc(C2c3[nH]c4ccc(Cl)cc4c3CCN2C(=O)Oc2ccccc2)ccc1OCCCn1cncn1 (stereo not drawn) [Compound 1150] | 0.008 to 0.04 | – | –
COc1ccc(OC(=O)N2CCc3c([nH]c4ccc(Cl)cc34)C2c2ccc(OCCCn3cncn3)c(OC)c2)cc1 (stereo not drawn) [Compound 1151] | 0.04 to 0.2 | – | –
COc1cc(C2c3[nH]c4ccc(Cl)cc4c3CCN2C(=O)Oc2ccc(C)cc2)ccc1OCCCn1cncn1 (stereo not drawn) [Compound 1152] | 0.008 to 0.04 | – | –
O=C(Oc1ccc(F)cc1)N1CCc2c([nH]c3ccc(Cl)cc23)C1c1cccc(OCCCn2cncn2)c1 (stereo not drawn) [Compound 1155] | 0.04 to 0.2 | – | –
C=CCOc1ccc([C@H]2c3[nH]c4ccc(Cl)cc4c3CCN2C(=O)Oc2ccc(Cl)cc2)cc1 [Compound 1159] | < 0.008 | – | –
O=C(Oc1ccc(Cl)cc1)N1CCc2c([nH]c3ccc(Cl)cc23)[C@@H]1c1ccc(O)cc1 [Compound 1160] | < 0.008 | – | –
CC1(C)OC[C@H](CCOc2ccc(C3c4[nH]c5ccc(Cl)cc5c4CCN3C(=O)Oc3ccc(Cl)cc3)cc2)O1 (stereo partly drawn) [Compound 1162] | < 0.008 | – | –
CC1(C)OC[C@H](CCOc2ccc(C3c4[nH]c5ccc(Cl)cc5c4CCN3C(=O)Oc3ccccc3)cc2)O1 (stereo partly drawn) [Compound 1168] | < 0.008 | – | –
CC1(C)OC[C@H](CCOc2ccc(C3c4[nH]c5ccc(Cl)cc5c4CCN3C(=O)Oc3ccc(F)cc3)cc2)O1 (stereo partly drawn) [Compound 1169] | < 0.008 | – | –
Cc1ccc(OC(=O)N2CCc3c([nH]c4ccc(Cl)cc34)C2c2ccc(OCC[C@H]3COC(C)(C)O3)cc2)cc1 (stereo partly drawn) [Compound 1170] | < 0.008 | – | –
COc1ccc(OC(=O)N2CCc3c([nH]c4ccc(Cl)cc34)C2c2ccc(OCC[C@H]3COC(C)(C)O3)cc2)cc1 (stereo partly drawn) [Compound 1171] | < 0.008 | – | –
O=C(Oc1ccc(Cl)cc1)N1CCc2c([nH]c3ccc(Cl)cc23)C1c1ccc(OCC[C@H](O)CO)cc1 (stereo partly drawn) [Compound 1172] | < 0.008 | – | –
O=C(Oc1ccccc1)N1CCc2c([nH]c3ccc(Cl)cc23)C1c1ccc(OCC[C@H](O)CO)cc1 (stereo partly drawn) [Compound 1178] | < 0.008 | – | –
O=C(Oc1ccc(F)cc1)N1CCc2c([nH]c3ccc(Cl)cc23)C1c1ccc(OCC[C@H](O)CO)cc1 (stereo partly drawn) [Compound 1179] | < 0.008 | – | –

— patent US20120157401A1, “METHODS FOR TREATING NEUROFIBROMATOSIS” (PTC Therapeutics, Inc., priority 2009, published 2012)
